PubChem BioAssay AID288 (DTP/NCI, 2004)
Inconclusive results are not listed.

Test system: BDF1 mice, M5076 sarcoma s.c., survival/tumor T/C
Experiment: NCI In Vivo Anticancer Drug Screen. Data for tumor model Sarcoma M5076 (subcutaneous) in B6D2F1 (BDF1) mice
Description: The antitumor activity of compounds was measured in mice bearing transplantable tumors. Survival or tumor size were measured and the results are expressed as the measurement made in the treated group (T) divided by the measurement made in the vehicle treated control group (C). The tumor model used in this assay is Sarcoma M5076 (subcutaneous) in B6D2F1 (BDF1) mice

[1] = endpoint: median survival time, dose: 50.0 mg/kg/injection, schedule: Q01DX009 (ip), vehicle: saline with Tween-80, higher = longer survival
[2] = endpoint: median survival time, dose: 100.0 mg/kg/injection, schedule: Q01DX009 (ip), vehicle: saline with Tween-80, higher = longer survival
[3] = endpoint: median survival time, dose: 200.0 mg/kg/injection, schedule: Q01DX009 (ip), vehicle: saline with Tween-80, higher = longer survival
[4] = endpoint: median tumor weight (est.), dose: 50.0 mg/kg/injection, schedule: Q01DX009 (ip), vehicle: saline with Tween-80, higher = larger tumour
[5] = endpoint: median tumor weight (est.), dose: 100.0 mg/kg/injection, schedule: Q01DX009 (ip), vehicle: saline with Tween-80, higher = larger tumour
[6] = endpoint: median tumor weight (est.), dose: 200.0 mg/kg/injection, schedule: Q01DX009 (ip), vehicle: saline with Tween-80, higher = larger tumour

COc1ccc(/C=N/NC(=O)C(=O)Nc2ccc(Cl)c([N+](=O)[O-])c2)cc1OC
T/C [1]: 97 % of control
T/C [2]: 88 % of control
T/C [3]: 97 % of control
T/C [4]: 96 % of control
T/C [5]: 90 % of control
T/C [6]: 86 % of control

CC1CCC(NC(=O)N(CCF)N=O)CC1 (configuration not stated)
T/C (endpoint: median survival time, dose: 30.0 mg/kg/injection, schedule: Q01DX003 (ip), vehicle: saline with Tween-80, higher = longer survival): 157 % of control
T/C (endpoint: median survival time, dose: 50.0 mg/kg/injection, schedule: Q01DX001 (ip), vehicle: saline with Tween-80, higher = longer survival): 152 % of control

O=C(O)CC(NC(=O)CP(=O)(O)O)C(=O)O (configuration not stated)
T/C (endpoint: median survival time, dose: 38.9 mg/kg/injection, schedule: Q01DX004 (ip), vehicle: saline, higher = longer survival): 109 % of control
T/C (endpoint: median survival time, dose: 64.8 mg/kg/injection, schedule: Q01DX004 (ip), vehicle: saline, higher = longer survival): 114 % of control
T/C (endpoint: median survival time, dose: 75.0 mg/kg/injection, schedule: Q02DX010 (ip), vehicle: saline, higher = longer survival): 176 % of control
T/C (endpoint: median survival time, dose: 150.0 mg/kg/injection, schedule: Q02DX010 (ip), vehicle: saline, higher = longer survival): 169 % of control
T/C (endpoint: median survival time, dose: 180.0 mg/kg/injection, schedule: Q01DX004 (ip), vehicle: saline, higher = longer survival): 124 % of control
T/C (endpoint: median survival time, dose: 300.0 mg/kg/injection, schedule: Q02DX010 (ip), vehicle: saline, higher = longer survival): 181 % of control

c1cnc2c(OCCOCCOCCOCCOc3cccc4cccnc34)cccc2c1
T/C [1]: 98 % of control
T/C [2]: 122 % of control
T/C [3]: 121 % of control
T/C [4]: 73 % of control
T/C [5]: 58 % of control
T/C [6]: 49 % of control

CNC(=O)c1ccccc1C1(O)c2ccccc2CCc2ccccc21
T/C [1]: 109 % of control
T/C [3]: 100 % of control

S=P(N1CC1)(N1CC1)N1CC1
T/C (endpoint: median survival time, dose: 3.4 mg/kg/injection, schedule: Q01DX007 (ip), vehicle: saline, higher = longer survival): 100 % of control
T/C (endpoint: median survival time, dose: 3.4 mg/kg/injection, schedule: Q02DX007 (ip), vehicle: saline, higher = longer survival): 105 % of control
T/C (endpoint: median survival time, dose: 4.0 mg/kg/injection, schedule: Q04DX003 (ip), vehicle: saline, higher = longer survival): 101 % of control
T/C (endpoint: median survival time, dose: 5.0 mg/kg/injection, schedule: Q01DX007 (ip), vehicle: saline, higher = longer survival): 105 % of control
T/C (endpoint: median survival time, dose: 5.0 mg/kg/injection, schedule: Q02DX007 (ip), vehicle: saline, higher = longer survival): 101 % of control
T/C (endpoint: median survival time, dose: 6.0 mg/kg/injection, schedule: Q04DX003 (ip), vehicle: saline, higher = longer survival): 100 % of control
T/C (endpoint: median survival time, dose: 6.0 mg/kg/injection, schedule: Q07DX003 (ip), vehicle: saline, higher = longer survival): 99 % of control
T/C (endpoint: median survival time, dose: 7.5 mg/kg/injection, schedule: Q01DX007 (ip), vehicle: saline, higher = longer survival): 106 % of control
T/C (endpoint: median survival time, dose: 7.5 mg/kg/injection, schedule: Q02DX007 (ip), vehicle: saline, higher = longer survival): 117 % of control
T/C (endpoint: median survival time, dose: 9.0 mg/kg/injection, schedule: Q04DX003 (ip), vehicle: saline, higher = longer survival): 107 % of control
T/C (endpoint: median survival time, dose: 9.0 mg/kg/injection, schedule: Q07DX003 (ip), vehicle: saline, higher = longer survival): 108 % of control
T/C (endpoint: median survival time, dose: 12.0 mg/kg/injection, schedule: Q07DX003 (ip), vehicle: saline, higher = longer survival): 111 % of control

O=C1NC2(CCCCC2)C(=O)N1CCN(CCCl)CCCl
T/C (endpoint: median tumor weight (est.), dose: 16.0 mg/kg/injection, schedule: Q01DX009 (ip), vehicle: saline with Tween-80, higher = larger tumour): 10 % of control

COC(=O)c1csc(C2OC(CO)C(O)C2O)n1 (configuration not stated)
T/C (endpoint: median survival time, dose: 50.0 mg/kg/injection, schedule: Q01DX009 (ip), vehicle: saline, higher = longer survival): 98 % of control
T/C (endpoint: median survival time, dose: 100.0 mg/kg/injection, schedule: Q01DX009 (ip), vehicle: saline, higher = longer survival): 100 % of control
T/C (endpoint: median survival time, dose: 200.0 mg/kg/injection, schedule: Q01DX009 (ip), vehicle: saline, higher = longer survival): 100 % of control
T/C (endpoint: median tumor weight (est.), dose: 50.0 mg/kg/injection, schedule: Q01DX009 (ip), vehicle: saline, higher = larger tumour): 61 % of control
T/C (endpoint: median tumor weight (est.), dose: 100.0 mg/kg/injection, schedule: Q01DX009 (ip), vehicle: saline, higher = larger tumour): 77 % of control
T/C (endpoint: median tumor weight (est.), dose: 200.0 mg/kg/injection, schedule: Q01DX009 (ip), vehicle: saline, higher = larger tumour): 85 % of control

O=C(O)c1c(CS(F)(F)(F)(F)F)cc(=O)oc1CS(F)(F)(F)(F)F
T/C [1]: 98 % of control
